Legend:
HER2 INS YVMA = biological target: T1, HER2 INS YVMA (Homo sapiens, UniProt P04626, INS775YVMA); experiment: Lance Kinase Activity Assay, HER2 INS YVMA (Her2 Exon 20 INSYVMA Lance); format: biochemical; conditions: biochemical Lance assay
T1 construct: purchased DPF
Procedure, shortened: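 Kinase phosphorylates a ULight-labelled peptide substrate; Eu anti-phospho antibody gives TR-FRET (ex 340 nm, em 665/615 nm). Compounds in 1:3 serial dilution over 8 steps, reaction started with ATP, 1 h at room temperature, stopped with EDTA-containing detection mix for 1 h. IC50 from sigmoidal dose-response curves.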

[1] = biological target: Her2 Exon 20 INSYVMA Ba/F3 (Homo sapiens, UniProt P04626, DUP772-775, cells depend on it); experiment: Her2 Exon 20 INSYVMA Ba/F3 CellTiter-Glo; format: cell-based; conditions: CellTiter-Glo, 72 h, read-out: Her2 Exon 20 INSYVMA Ba/F3 CTG IC50
Chain of Her2 Exon 20 INSYVMA Ba/F3 (P04626 with tags, fused parts or gaps DUP772-775): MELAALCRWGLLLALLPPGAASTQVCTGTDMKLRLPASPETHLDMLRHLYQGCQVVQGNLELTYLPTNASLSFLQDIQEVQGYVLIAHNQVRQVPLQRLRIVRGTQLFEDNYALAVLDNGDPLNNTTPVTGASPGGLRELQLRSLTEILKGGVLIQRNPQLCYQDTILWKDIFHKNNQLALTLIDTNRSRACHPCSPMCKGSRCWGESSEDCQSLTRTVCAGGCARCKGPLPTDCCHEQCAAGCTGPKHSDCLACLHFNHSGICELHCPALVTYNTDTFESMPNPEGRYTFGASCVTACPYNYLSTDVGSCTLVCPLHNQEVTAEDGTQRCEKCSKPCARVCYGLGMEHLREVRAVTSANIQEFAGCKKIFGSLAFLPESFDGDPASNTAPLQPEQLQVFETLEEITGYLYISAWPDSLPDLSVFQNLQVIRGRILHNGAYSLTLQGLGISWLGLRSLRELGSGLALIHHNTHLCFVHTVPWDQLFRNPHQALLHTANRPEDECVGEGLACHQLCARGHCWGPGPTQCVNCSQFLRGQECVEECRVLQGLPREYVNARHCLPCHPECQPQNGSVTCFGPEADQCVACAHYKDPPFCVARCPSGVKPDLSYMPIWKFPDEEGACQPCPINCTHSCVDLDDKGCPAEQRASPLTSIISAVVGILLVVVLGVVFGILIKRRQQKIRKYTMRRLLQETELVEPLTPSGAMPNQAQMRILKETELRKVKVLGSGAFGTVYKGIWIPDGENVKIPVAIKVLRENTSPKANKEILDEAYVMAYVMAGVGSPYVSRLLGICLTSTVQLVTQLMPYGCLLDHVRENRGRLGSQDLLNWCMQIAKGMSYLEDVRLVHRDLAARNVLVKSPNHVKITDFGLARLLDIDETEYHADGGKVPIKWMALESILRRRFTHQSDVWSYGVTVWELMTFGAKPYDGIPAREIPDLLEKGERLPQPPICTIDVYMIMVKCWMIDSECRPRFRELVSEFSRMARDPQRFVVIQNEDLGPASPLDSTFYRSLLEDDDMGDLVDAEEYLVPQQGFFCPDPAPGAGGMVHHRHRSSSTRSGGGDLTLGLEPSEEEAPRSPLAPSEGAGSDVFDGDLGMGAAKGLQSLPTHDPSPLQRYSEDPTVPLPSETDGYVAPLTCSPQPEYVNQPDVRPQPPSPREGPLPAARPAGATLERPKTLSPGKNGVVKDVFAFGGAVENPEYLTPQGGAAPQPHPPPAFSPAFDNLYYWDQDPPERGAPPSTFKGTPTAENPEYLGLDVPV
Procedure, shortened: (§1)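 Using a 72 h viability readout, compound-treated Ba/F3 cells (pre-incubated 24 h after seeding) were lysed with CellTiter-Glo reagent and luminescence recorded. Potency was expressed as IC50 from a fitted dose–response curve.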

[2] = biological target: EGFR Exon 20 INSNPH Ba/F3 (Homo sapiens, UniProt P00533, DUP771-773, cells depend on it); experiment: EGFR Exon 20 INSNPH Ba/F3 CellTiter-Glo; format: cell-based; conditions: CellTiter-Glo, 72 h, read-out: EGFR Exon 20 INSNPH Ba/F3 CTG IC50
Procedure, shortened: as §1

EGFR T790ML858R = EGFR T790ML858R (Homo sapiens, UniProt P00533, L858R/T790M); experiment: EGFR T790ML858R Lance assay; format: biochemical
Chain of EGFR T790ML858R (P00533 25-1210 T790M/L858R): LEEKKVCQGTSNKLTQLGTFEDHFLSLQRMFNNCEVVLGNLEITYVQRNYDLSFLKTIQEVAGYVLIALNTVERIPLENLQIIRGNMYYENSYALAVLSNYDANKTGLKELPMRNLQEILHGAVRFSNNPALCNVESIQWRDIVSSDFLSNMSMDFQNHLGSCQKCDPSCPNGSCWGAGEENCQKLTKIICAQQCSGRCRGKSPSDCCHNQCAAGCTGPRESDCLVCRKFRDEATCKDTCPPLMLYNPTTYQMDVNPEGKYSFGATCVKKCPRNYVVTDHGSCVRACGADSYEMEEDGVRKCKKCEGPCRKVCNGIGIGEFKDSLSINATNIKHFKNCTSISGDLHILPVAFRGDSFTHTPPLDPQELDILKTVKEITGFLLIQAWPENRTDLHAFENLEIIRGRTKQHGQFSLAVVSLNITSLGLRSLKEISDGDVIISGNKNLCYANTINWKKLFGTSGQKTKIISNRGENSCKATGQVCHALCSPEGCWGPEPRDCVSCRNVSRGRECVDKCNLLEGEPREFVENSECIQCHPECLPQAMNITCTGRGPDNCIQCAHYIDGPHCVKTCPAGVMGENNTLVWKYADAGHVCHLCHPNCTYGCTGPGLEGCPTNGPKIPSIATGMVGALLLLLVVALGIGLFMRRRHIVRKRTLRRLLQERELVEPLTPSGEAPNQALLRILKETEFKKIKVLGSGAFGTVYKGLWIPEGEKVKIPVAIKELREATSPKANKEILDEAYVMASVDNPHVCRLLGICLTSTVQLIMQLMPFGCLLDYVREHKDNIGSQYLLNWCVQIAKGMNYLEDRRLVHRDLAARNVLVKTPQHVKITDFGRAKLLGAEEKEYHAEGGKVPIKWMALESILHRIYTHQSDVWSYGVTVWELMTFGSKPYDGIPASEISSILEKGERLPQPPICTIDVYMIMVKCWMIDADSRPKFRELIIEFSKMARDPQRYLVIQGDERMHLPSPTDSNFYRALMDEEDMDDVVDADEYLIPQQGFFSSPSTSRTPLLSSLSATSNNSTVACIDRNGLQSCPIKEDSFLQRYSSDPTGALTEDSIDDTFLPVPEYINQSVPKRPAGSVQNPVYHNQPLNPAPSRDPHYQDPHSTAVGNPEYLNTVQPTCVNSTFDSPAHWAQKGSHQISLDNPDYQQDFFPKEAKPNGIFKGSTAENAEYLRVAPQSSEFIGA
Procedure: (§2) Inhibition is indicated as […] [nM] (“−”=not measured). Compounds having an activity designated as “A” provided an IC50≤100 nM; compounds having an activity designated as “B” provided an 100 nM<IC50≤500 nM; compounds having an activity designated as “C” provided an 500 nM<IC50≤1000 nM; compounds having an activity designated as “D” provided an 1000 nM<IC50≤100000 nM; and compounds having an activity designated as “E” provided an IC50>10000 nM.

EGFR wt = EGFR wt (Homo sapiens, UniProt P00533); experiment: EGFR wt Lance assay; format: biochemical
Chain of EGFR wt (P00533 25-1210): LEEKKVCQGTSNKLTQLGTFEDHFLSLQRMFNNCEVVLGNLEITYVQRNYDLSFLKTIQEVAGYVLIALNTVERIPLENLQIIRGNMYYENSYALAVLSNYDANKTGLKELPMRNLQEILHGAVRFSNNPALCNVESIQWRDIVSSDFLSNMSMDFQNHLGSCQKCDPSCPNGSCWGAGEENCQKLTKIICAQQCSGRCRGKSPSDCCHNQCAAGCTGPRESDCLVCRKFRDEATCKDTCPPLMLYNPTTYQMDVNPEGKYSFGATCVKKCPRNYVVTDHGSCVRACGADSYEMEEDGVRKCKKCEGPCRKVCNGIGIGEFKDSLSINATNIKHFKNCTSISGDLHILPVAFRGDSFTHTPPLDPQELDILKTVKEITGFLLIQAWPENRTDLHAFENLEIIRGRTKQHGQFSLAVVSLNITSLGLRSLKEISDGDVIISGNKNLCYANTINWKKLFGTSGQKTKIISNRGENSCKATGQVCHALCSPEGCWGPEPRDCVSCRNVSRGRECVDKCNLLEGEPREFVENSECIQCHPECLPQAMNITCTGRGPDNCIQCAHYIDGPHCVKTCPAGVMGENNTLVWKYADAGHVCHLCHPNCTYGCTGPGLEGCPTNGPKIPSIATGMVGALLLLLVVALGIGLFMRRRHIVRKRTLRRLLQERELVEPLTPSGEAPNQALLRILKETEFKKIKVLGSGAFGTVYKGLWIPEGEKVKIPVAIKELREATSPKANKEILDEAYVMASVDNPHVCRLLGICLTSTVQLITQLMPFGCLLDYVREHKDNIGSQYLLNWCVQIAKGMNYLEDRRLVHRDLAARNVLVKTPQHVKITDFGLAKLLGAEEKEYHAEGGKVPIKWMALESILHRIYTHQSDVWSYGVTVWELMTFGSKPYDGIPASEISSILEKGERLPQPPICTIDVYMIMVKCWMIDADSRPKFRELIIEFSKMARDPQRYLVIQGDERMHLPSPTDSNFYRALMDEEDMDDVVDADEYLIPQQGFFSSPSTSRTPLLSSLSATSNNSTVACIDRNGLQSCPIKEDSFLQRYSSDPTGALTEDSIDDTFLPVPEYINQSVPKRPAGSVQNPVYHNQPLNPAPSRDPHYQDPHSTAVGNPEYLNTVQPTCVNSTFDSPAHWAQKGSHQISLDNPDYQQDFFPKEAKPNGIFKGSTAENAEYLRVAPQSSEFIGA
Procedure: as §2

H1975 = H1975 CellTiter-Glo; format: cell-based; conditions: Homo sapiens, NCI-H1975; 72 h compound incubation; read-out: H1975 CTG IC50
Procedure, shortened: (§3)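 Cells seeded, after 24 h at 37° C/5% CO2 treated with compounds in DMSO at various concentrations for 72 h. Viability from ATP luminescence (CellTiter-Glo); DMSO and 10 μM Staurosporine as controls; IC50 from dose-response fit, plates accepted at Z′ ≥0.5.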

A431 = A431 CellTiter-Glo; format: cell-based; conditions: Homo sapiens, A-431; 72 h compound incubation; read-out: A431 CTG IC50
Procedure, shortened: as §3

[3] = Metabolic stability in mouse liver microsomes without cofactor NADPH; format: in vitro ADME; conditions: 3 μM test compound, mouse liver microsomes, without NADPH, 50 min, 37° C., LC-MS/MS
Procedure, shortened: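 Test compound (3 μM) was incubated with mouse liver microsomes without NADPH at 37° C. Depletion was followed by LC-MS/MS over time up to 50 min.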

T1 sequence (P04626 with tags, fused parts or gaps INS775YVMA): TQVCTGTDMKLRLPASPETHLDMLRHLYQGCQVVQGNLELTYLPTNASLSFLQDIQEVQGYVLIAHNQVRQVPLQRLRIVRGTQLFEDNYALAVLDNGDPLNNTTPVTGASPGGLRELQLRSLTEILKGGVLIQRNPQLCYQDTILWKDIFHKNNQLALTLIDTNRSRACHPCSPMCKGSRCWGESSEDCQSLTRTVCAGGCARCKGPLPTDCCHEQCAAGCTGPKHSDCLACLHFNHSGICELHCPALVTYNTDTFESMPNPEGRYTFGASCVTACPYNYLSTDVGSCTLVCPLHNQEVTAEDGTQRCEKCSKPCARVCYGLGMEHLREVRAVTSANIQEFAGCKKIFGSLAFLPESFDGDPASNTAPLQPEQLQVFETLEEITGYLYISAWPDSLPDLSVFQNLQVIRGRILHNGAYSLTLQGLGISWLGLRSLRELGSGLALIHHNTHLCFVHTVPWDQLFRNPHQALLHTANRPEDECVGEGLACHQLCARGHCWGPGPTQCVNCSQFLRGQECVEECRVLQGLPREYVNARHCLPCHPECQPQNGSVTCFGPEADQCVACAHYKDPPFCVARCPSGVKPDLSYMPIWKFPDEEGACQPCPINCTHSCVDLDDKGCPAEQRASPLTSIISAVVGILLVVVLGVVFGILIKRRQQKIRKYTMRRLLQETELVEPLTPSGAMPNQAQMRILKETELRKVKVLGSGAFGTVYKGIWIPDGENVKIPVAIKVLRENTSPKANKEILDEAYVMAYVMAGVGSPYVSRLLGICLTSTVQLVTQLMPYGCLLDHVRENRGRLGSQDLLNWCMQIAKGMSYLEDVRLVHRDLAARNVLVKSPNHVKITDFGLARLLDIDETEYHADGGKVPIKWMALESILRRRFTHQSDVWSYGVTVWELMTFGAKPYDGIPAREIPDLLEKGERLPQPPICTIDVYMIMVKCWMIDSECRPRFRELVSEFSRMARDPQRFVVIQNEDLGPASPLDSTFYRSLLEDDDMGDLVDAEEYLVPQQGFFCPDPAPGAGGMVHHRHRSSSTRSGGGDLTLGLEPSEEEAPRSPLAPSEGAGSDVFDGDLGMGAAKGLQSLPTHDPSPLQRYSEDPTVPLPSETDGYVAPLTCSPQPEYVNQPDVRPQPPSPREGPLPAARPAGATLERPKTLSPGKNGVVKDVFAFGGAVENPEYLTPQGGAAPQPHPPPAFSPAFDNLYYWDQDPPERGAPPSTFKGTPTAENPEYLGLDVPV

| Structure (SMILES) | IC50 (HER2 INS YVMA) | GI50 [1] | GI50 [2] | IC50 (EGFR T790ML858R) | IC50 (EGFR wt) | IC50 (H1975) | IC50 (A431) | Stability in presence of mouse liver microsomes without cofactor NADPH [% remaining after 50 min] [3] |
| --- | --- | --- | --- | --- | --- | --- | --- | --- |
| C=CC(=O)Nc1cc(-c2c(-c3ccc(N4CCN(C(C)C)CC4)cc3)[nH]c3nccc(Cl)c23)ccc1C [Example 41, N-(5-(4-chloro-2-(4-(4-isopropylpiperazin-1-yl)phenyl)-1H-pyrrolo[2,3-b]pyridin-3-yl)-2-methylphenyl)acrylamide] | ≤ 100 nM | ≤ 100 nM | ≤ 100 nM | ≤ 100 nM | ≤ 100 nM | ≤ 100 nM | 100 to 500 nM | >99 % remaining after 50 min |
| C=CC(=O)N1CCc2ccc(-c3c(-c4cccc(OCCN5CCCC5)c4)[nH]c4nccc(Cl)c34)cc21 [Example 64, 1-(6-(4-chloro-2-(3-(2-(pyrrolidin-1-yl)ethoxy)phenyl)-1H-pyrrolo[2,3-b]pyridin-3-yl)indolin-1-yl)prop-2-en-1-one] | ≤ 100 nM | 100 to 500 nM | 100 to 500 nM | ≤ 100 nM | ≤ 100 nM | ≤ 100 nM | 500 to 1000 nM | >99 % remaining after 50 min |
| C=CC(=O)N1CCc2ccc(-c3c(-c4ccc(N5CCN(C)CC5)cc4)[nH]c4nccc(OC)c34)cc21 [Example 110, 1-(6-(4-methoxy-2-(4-(4-methylpiperazin-1-yl)phenyl)-1H-pyrrolo[2,3-b]pyridin-3-yl)indolin-1-yl)prop-2-en-1-one] | ≤ 100 nM | 100 to 500 nM | 100 to 500 nM | ≤ 100 nM | ≤ 100 nM | ≤ 100 nM | 500 to 1000 nM | 93 % remaining after 50 min |
| C=CC(=O)Nc1cc(-c2c(-c3ccc(OCCN4CCCC4)cc3)[nH]c3nccc(Cl)c23)ccc1C [Example 38, N-(5-(4-chloro-2-(4-(2-(pyrrolidin-1-yl)ethoxy)phenyl)-1H-pyrrolo[2,3-b]pyridin-3-yl)-2-methylphenyl)acrylamide] | ≤ 100 nM | ≤ 100 nM | ≤ 100 nM | ≤ 100 nM | ≤ 100 nM | ≤ 100 nM | 100 to 500 nM | >99 % remaining after 50 min |
| C=CC(=O)Nc1cc(-c2c(-c3ccc(N4CCN(C)CC4)c(F)c3)[nH]c3nccc(Cl)c23)ccc1C [Example 42, N-(5-(4-chloro-2-(3-fluoro-4-(4-methylpiperazin-1-yl)phenyl)-1H-pyrrolo[2,3-b]pyridin-3-yl)-2-methylphenyl)acrylamide] | ≤ 100 nM | 100 to 500 nM | 100 to 500 nM | ≤ 100 nM | ≤ 100 nM | ≤ 100 nM | 100 to 500 nM | >99 % remaining after 50 min |
| C=CC(=O)Nc1cc(-c2c(-c3cccc(CN4CCOCC4)c3)[nH]c3ncccc23)ccc1C [Example 82, N-(2-methyl-5-(2-(3-(morpholinomethyl)phenyl)-1H-pyrrolo[2,3-b]pyridin-3-yl)phenyl)acrylamide] | 1000 to 10000 nM | 1000 to 10000 nM | 1000 to 10000 nM | ≤ 100 nM | 100 to 500 nM | 500 to 1000 nM | 1000 to 100000 nM | 97 % remaining after 50 min |
| C=CC(=O)Nc1cc(-c2c(-c3ccc(CN(C)C)cc3)[nH]c3ncc(C(=O)OC(C)C)cc23)cc(F)c1C [Example 177, isopropyl 3-(3-acrylamido-5-fluoro-4-methylphenyl)-2-(4-((dimethylamino)methyl)phenyl)-1H-pyrrolo[2,3-b]pyridine-5-carboxylate] | ≤ 100 nM | 100 to 500 nM | 100 to 500 nM | ≤ 100 nM | ≤ 100 nM | 100 to 500 nM | 1000 to 100000 nM | >99 % remaining after 50 min |
| C=CC(=O)Nc1cc(-c2c(-c3ccc(N4CCN(C)CC4)cc3)[nH]c3ncc(C(=O)OC4CC4)cc23)ccc1C [Example 138, cyclopropyl 3-(3-acrylamido-4-methylphenyl)-2-(4-(4-methylpiperazin-1-yl)phenyl)-1H-pyrrolo[2,3-b]pyridine-5-carboxylate] | ≤ 100 nM | 100 to 500 nM | 100 to 500 nM | ≤ 100 nM | ≤ 100 nM | ≤ 100 nM | 1000 to 100000 nM | >99 % remaining after 50 min |
| C=CC(=O)N1CCc2ccc(-c3c(-c4ccc(N5CCN(CC)CC5)cc4)[nH]c4nccc(Cl)c34)cc21 [Example 63, 1-(6-(4-chloro-2-(4-(4-ethylpiperazin-1-yl)phenyl)-1H-pyrrolo[2,3-b]pyridin-3-yl)indolin-1-yl)prop-2-en-1-one] | ≤ 100 nM | 100 to 500 nM | 100 to 500 nM | ≤ 100 nM | ≤ 100 nM | ≤ 100 nM | 500 to 1000 nM | >99 % remaining after 50 min |
| C=CC(=O)N1CCc2ccc(-c3c(-c4ccc(CN5CCN(C)CC5)cc4)[nH]c4nccc(OCC)c34)cc21 [Example 108, 1-(6-(4-ethoxy-2-(4-((4-methylpiperazin-1-yl)methyl)phenyl)-1H-pyrrolo[2,3-b]pyridin-3-yl)indolin-1-yl)prop-2-en-1-one] | ≤ 100 nM | 100 to 500 nM | 100 to 500 nM | ≤ 100 nM | ≤ 100 nM | ≤ 100 nM | 500 to 1000 nM | 86 % remaining after 50 min |
| C=CC(=O)Nc1cc(-c2c(-c3ccc(N4CCN(C)CC4)cc3)[nH]c3ncc(C(=O)O)cc23)ccc1C [Example 116, 3-(3-acrylamido-4-methylphenyl)-2-(4-(4-methylpiperazin-1-yl)phenyl)-1H-pyrrolo[2,3-b]pyridine-5-carboxylic acid 2,2,2-trifluoroacetate] | ≤ 100 nM | > 10000 nM | > 10000 nM | ≤ 100 nM | ≤ 100 nM | > 10000 nM | > 10000 nM | 92 % remaining after 50 min |
| C=CC(=O)Nc1cc(-c2c(-c3ccc(OCCN4CCCC4)cc3)[nH]c3ncc(C(=O)OC(C)C)cc23)ccc1C [Example 158, isopropyl 3-(3-acrylamido-4-methylphenyl)-2-(4-(2-(pyrrolidin-1-yl)ethoxy)phenyl)-1H-pyrrolo[2,3-b]pyridine-5-carboxylate] | ≤ 100 nM | 100 to 500 nM | 100 to 500 nM | ≤ 100 nM | ≤ 100 nM | 100 to 500 nM | 1000 to 100000 nM | >99 % remaining after 50 min |
| C=CC(=O)Nc1cc(-c2c(-c3ccc(N(C)CCN(C)C)cc3)[nH]c3ncc(C(=O)OC(C)C)cc23)ccc1C [Example 154, isopropyl 3-(3-acrylamido-4-methylphenyl)-2-(4-((2-(dimethylamino)ethyl)(methyl)amino)phenyl)-1H-pyrrolo[2,3-b]pyridine-5-carboxylate 2,2,2-trifluoroacetate] | ≤ 100 nM | 100 to 500 nM | 100 to 500 nM | ≤ 100 nM | ≤ 100 nM | 100 to 500 nM | 1000 to 100000 nM | >99 % remaining after 50 min |

— US20220370440A1 (Lead Discovery Center GmbH, priority 2018, published 2022)
